molecular target: T1, human TRPC6 (Homo sapiens, UniProt Q9Y210); assay: TRPC6 calcium flux assay (FLIPR, OAG-stimulated calcium influx); assay type: cell-based; conditions: HEK293 cells stably transfected with human TRPC6, read-out: hTRPC6 Potency
T1 construct: expressed in transfected cells
T1 sequence (Q9Y210 1-931): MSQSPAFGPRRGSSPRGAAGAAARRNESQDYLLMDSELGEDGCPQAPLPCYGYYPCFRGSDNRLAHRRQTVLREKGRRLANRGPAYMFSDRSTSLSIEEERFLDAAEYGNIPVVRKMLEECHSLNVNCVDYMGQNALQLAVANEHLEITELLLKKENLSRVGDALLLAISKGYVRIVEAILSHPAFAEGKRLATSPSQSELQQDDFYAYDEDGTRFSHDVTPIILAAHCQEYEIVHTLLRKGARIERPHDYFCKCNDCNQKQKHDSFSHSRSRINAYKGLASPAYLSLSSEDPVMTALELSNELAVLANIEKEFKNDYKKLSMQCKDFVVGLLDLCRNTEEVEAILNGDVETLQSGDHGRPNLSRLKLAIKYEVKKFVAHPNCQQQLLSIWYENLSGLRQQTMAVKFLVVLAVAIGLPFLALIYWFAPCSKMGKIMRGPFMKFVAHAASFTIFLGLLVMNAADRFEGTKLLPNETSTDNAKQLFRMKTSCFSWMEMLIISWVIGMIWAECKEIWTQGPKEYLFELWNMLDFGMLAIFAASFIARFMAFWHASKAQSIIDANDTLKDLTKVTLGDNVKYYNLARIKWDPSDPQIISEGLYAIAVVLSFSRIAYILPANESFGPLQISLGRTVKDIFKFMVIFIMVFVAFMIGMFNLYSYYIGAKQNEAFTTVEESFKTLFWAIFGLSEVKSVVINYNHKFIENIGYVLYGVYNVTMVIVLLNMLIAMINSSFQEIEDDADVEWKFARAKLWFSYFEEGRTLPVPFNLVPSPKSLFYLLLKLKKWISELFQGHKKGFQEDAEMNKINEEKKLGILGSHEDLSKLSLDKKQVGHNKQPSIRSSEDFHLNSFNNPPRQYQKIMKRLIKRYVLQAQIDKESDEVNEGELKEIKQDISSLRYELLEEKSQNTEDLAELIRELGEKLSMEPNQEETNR
Method in brief: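 IC50 derived by plotting background-corrected peak fluorescence (180 s window, normalized to OAG-triggered signal vs buffer) against dose. Stable human TRPC6 HEK293 line was dye-loaded, exposed to compound 25 min, then challenged with 50 uM final OAG in 2 mM Ca2+ HEPES buffer pH 7.2, 0.5% DMSO.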

Row | SMILES | IC50 [nM]
1 | CN(C(=O)Cn1c(N2CC[C@@H](F)[C@H](N)C2)nc2cc(F)c(F)cc21)C1CCOC1 (stereo partly drawn) [Example 611, 2-(2-((3R,4R)-3-amino-4-fluoropiperidin-1-yl)-5,6-difluoro-1H-benzo[d]imidazol-1-yl)-N-methyl-N-(tetrahydrofuran-3-yl)acetamide] | 22.4
2 | CN(CC#N)C(=O)Cn1c(N2CC[C@@H](F)[C@H](N)C2)nc2cc(F)c(F)cc21 [Example 615, 2-(2-((3R,4R)-3-amino-4-fluoropiperidin-1-yl)-5,6-difluoro-1H-benzo[d]imidazol-1-yl)-N-(cyanomethyl)-N-methylacetamide] | 28.5
3 | CCCN(C)C(=O)Cn1c(N2CC[C@@H](F)[C@H](N)C2)nc2cc(F)c(F)cc21 [Example 616, 2-(2-((3R,4R)-3-amino-4-fluoropiperidin-1-yl)-5,6-difluoro-1H-benzo[d]imidazol-1-yl)-N-methyl-N-propylacetamide] | 32.3
4 | N[C@@H]1CN(c2nc3cc(F)c(F)cc3n2CC(=O)N(CCO)C2CC2)CC[C@H]1F [Example 617, 2-(2-((3R,4R)-3-amino-4-fluoropiperidin-1-yl)-5,6-difluoro-1H-benzo[d]imidazol-1-yl)-N-cyclopropyl-N-(2-hydroxyethyl)acetamide] | 33.2
5 | N[C@@H]1CN(c2nc3cc(F)c(F)cc3n2CC(=O)N2CCN(c3ncccn3)CC2)CC[C@H]1F [Example 624, 2-(2-((3R,4R)-3-amino-4-fluoropiperidin-1-yl)-5,6-difluoro-1H-benzo[d]imidazol-1-yl)-1-(4-(pyrimidin-2-yl)piperazin-1-yl)ethanone] | 102
6 | CC(C)C1CCN1C(=O)Cn1c(N2CC[C@@H](F)[C@H](N)C2)nc2cc(F)c(F)cc21 (stereo partly drawn) [Example 625, 2-(2-((3R,4R)-3-amino-4-fluoropiperidin-1-yl)-5,6-difluoro-1H-benzo[d]imidazol-1-yl)-1-(2-isopropylazetidin-1-yl)ethanone] | 105
7 | CC1(C#N)CCN(C(=O)Cn2c(N3CC[C@@H](F)[C@H](N)C3)nc3cc(F)c(F)cc32)CC1 [Example 629, 1-(2-(2-((3R,4R)-3-amino-4-fluoropiperidin-1-yl)-5,6-difluoro-1H-benzo[d]imidazol-1-yl)acetyl)-4-methylpiperidine-4-carbonitrile] | 158
8 | N[C@@H]1CN(c2nc3cc(F)c(F)cc3n2CC(=O)N(CC(F)F)C2CC2)CC[C@H]1F [Example 631, 2-(2-((3R,4R)-3-amino-4-fluoropiperidin-1-yl)-5,6-difluoro-1H-benzo[d]imidazol-1-yl)-N-cyclopropyl-N-(2,2-difluoroethyl)acetamide] | 225
9 | CN(C(=O)Cn1c(N2CC[C@@H](F)[C@H](N)C2)nc2cc(F)c(F)cc21)[C@H]1CC[C@H](O)CC1 [Example 637, 2-(2-((3R,4R)-3-amino-4-fluoropiperidin-1-yl)-5,6-difluoro-1H-benzo[d]imidazol-1-yl)-N-((1r,4R)-4-hydroxycyclohexyl)-N-methylacetamide] | 341
10 | CC(c1ccccn1)N(C)C(=O)Cn1c(N2CC[C@@H](F)[C@H](N)C2)nc2cc(F)c(F)cc21 (stereo partly drawn) [Example 638, 2-(2-((3R,4R)-3-amino-4-fluoropiperidin-1-yl)-5,6-difluoro-1H-benzo[d]imidazol-1-yl)-N-methyi-N-((S)-1-(pyridin-2-yl)ethyl)acetamide] | 425
11 | N[C@@H]1CN(c2nc3cc(F)c(F)cc3n2CC(=O)N2CCN3C(=O)NCC3C2)CC[C@H]1F (stereo partly drawn) [Example 642, 7-(2-(2-((3R,4R)-3-amino-4-fluoropiperidin-1-yl)-5,6-difluoro-1H-benzo[d]imidazol-1-yl)acetyl)hexahydroimidazo [1,5-a]pyrazin-3(2H)-one] | 1650
12 | CNC(=O)C1CN(C(=O)Cn2c(N3CC[C@@H](F)[C@H](N)C3)nc3cc(F)c(F)cc32)CCO1 (stereo partly drawn) [Example 644, 4-(2-(2-((3R,4R)-3-amino-4-fluoropiperidin-1-yl)-5,6-difluoro-1H-benzo[d]imidazol-1-yl)acetyl)-N-methylmorpholine-2-carboxamide] | 1910

More lines, in order of falling IC50, values ahead:

Row | IC50 [nM] | SMILES
13 | 1820 | N#CCCN(CC1CCOC1)C(=O)Cn1c(N2CC[C@@H](F)[C@H](N)C2)nc2cc(F)c(F)cc21 (stereo partly drawn) [Example 643, 2-(2-((3R,4R)-3-amino-4-fluoropiperidin-1-yl)-5,6-difluoro-1H-benzo[d]imidazol-1-yl)-N-(2-cyanoethyl)-N-((tetrahydrofuran-3-yl)methyl)acetamide]
14 | 1280 | N[C@@H]1CN(c2nc3cc(F)c(F)cc3n2CC(=O)N2CC(n3cncn3)C2)CC[C@H]1F [Example 641, 1-(3-(1H-1,2,4-triazol-1-yl)azetidin-1-yl)-2-(2-((3R,4R)-3-amino-4-fluoropiperidin-1-yl)-5,6-difluoro-1H-benzo[d]imidazol-1-yl)ethanone]
15 | 809 | N[C@@H]1CN(c2nc3cc(F)c(F)cc3n2CC(=O)N2CCC(O)CC2)CC[C@H]1F [Example 640, 2-(2-((3R,4R)-3-amino-4-fluoropiperidin-1-yl)-5,6-difluoro-1H-benzo[d]imidazol-1-yl)-1-(4-hydroxypiperidin-1-yl)ethanone]
16 | 657 | N[C@@H]1CN(c2nc3cc(F)c(F)cc3n2CC(=O)N2CCCC3COCCC32)CC[C@H]1F (stereo partly drawn) [Example 639, 2-(2-((3R,4R)-3-amino-4-fluoropiperidin-1-yl)-5,6-difluoro-1H-benzo[d]imidazol-1-yl)-1-(octahydro-1H-pyrano[4,3-b]pyridin-1-yl)ethanone]
17 | 326 | N#C[C@H]1CCCN1C(=O)Cn1c(N2CC[C@@H](F)[C@H](N)C2)nc2cc(F)c(F)cc21 [Example 636, (R)-1-(2-(2-((3R,4R)-3-amino-4-fluoropiperidin-1-yl)-5,6-difluoro-1H-benzo[d]imidazol-1-yl)acetyl)pyrrolidine-2-carbonitrile]
18 | 230 | N[C@@H]1CN(c2nc3cc(F)c(F)cc3n2CC(=O)N2Cc3cccnc3C2)CC[C@H]1F [Example 632, 2-(2-((3R,4R)-3-amino-4-fluoropiperidin-1-yl)-5,6-difluoro-1H-benzo[d]imidazol-1-yl)-1-(5H-pyrrolo[3,4-b]pyridin-6(7H)-yl)ethanone]
19 | 174 | N[C@@H]1CN(c2nc3cc(F)c(F)cc3n2CC(=O)N2CCCc3cccnc32)CC[C@H]1F [Example 630, 2-(2-((3R,4R)-3-amino-4-fluoropiperidin-1-yl)-5,6-difluoro-1H-benzo[d]imidazol-1-yl)-1-(3,4-dihydro-1,8-naphthyridin-1(2H)-yl)ethanone]
20 | 117 | N[C@@H]1CN(c2nc3cc(F)c(F)cc3n2CC(=O)N2CCC(OC(F)F)C2)CC[C@H]1F (stereo partly drawn) [Example 626, 2-(2-((3R,4R)-3-amino-4-fluoropiperidin-1-yl)-5,6-difluoro-1H-benzo[d]imidazol-1-yl)-1-(3-(difluoromethoxy)pyrrolidin-1-yl)ethanone]
21 | 89 | N[C@@H]1CN(c2nc3cc(F)c(F)cc3n2CC(=O)N2C[C@@H]3[C@H](C2)C3(F)F)CC[C@H]1F [Example 623, 2-(2-((3R,4R)-3-amino-4-fluoropiperidin-1-yl)-5,6-difluoro-1H-benzo[d]imidazol-1-yl)-1-((1R,5S)-6,6-difluoro-3-azabicyclo[3.1.0]hexan-3-yl)ethanone]
22 | 78.9 | CN(CCC(F)(F)F)C(=O)Cn1c(N2CC[C@@H](F)[C@H](N)C2)nc2cc(F)c(F)cc21 [Example 622, -(2-((3R,4R)-3-amino-4-fluoropiperidin-1-yl)-5,6-difluoro-1H-benzo[d]imidazol-1-yl)-N-methyl-N-(3,3,3-trifluoropropyl)acetamide]
23 | 57.4 | N[C@@H]1CN(c2nc3cc(F)c(F)cc3n2CC(=O)N2CC3CC2CO3)CC[C@H]1F (stereo partly drawn) [Example 619, 2-(2-((3R,4R)-3-amino-4-fluoropiperidin-1-yl)-5,6-difluoro-1H-benzo[d]imidazol-1-yl)-1-(2-oxa-5-azabicyclo[2.2.1]heptan-5-yl)ethanone]
24 | 48.3 | N#CC1(F)CCN(C(=O)Cn2c(N3CC[C@@H](F)[C@H](N)C3)nc3cc(F)c(F)cc32)C1 (stereo partly drawn) [Example 618, 1-(2-(2-((3R,4R)-3-amino-4-fluoropiperidin-1-yl)-5,6-difluoro-1H-benzo[d]imidazol-1-yl)acetyl)-3-fluoropyrrolidine-3-carbonitrile]
25 | 24.2 | CC(c1ccncc1)N(C)C(=O)Cn1c(N2CC[C@@H](F)[C@H](N)C2)nc2cc(F)c(F)cc21 (stereo partly drawn) [Example 613, 2-(2-((3R,4R)-3-amino-4-fluoropiperidin-1-yl)-5,6-difluoro-1H-benzo[d]imidazol-1-yl)-N-methyl-N-(1-(pyridin-4-yl)ethyl)acetamide]
